The nature of assay [1]: compound enhancement of TRAIL-induced cell killing – NB7 cells plus caspase-8, luminescence, panel, dose response (AID 652002). The note with it: NB7 neuroblastoma +caspase-8, no TRAIL, compound-alone cytotoxicity counter-screen, luminescence viability, NB7+Caspase-8.
Assay [2] concerns the target NB7+Caspase-8. Described as above. The note with it: NB7 neuroblastoma +caspase-8, TRAIL sensitization, luminescence viability, with TRAIL.
In assay [3] the target is Tumor necrosis factor receptor superfamily member 10B (Homo sapiens) (UniProt O14763). The assay is described as above. To be noted: NB7 neuroblastoma +caspase-8, TRAIL sensitization, luminescence viability; NB7+Caspase-8; with TRAIL, mean of runs.
[4] abbreviates: run 1, single replicate panel EC50.
Where [5] appears, read: run 2, single replicate panel EC50.

Each structure is given as a SMILES string. Calls of active or inactive are those of the source. No rule for the calls is given here.

Among the data in PubChem BioAssay AID652002 (Sanford-Burnham Center for Chemical Genomics, 2013) are EC50 values, retold here.

The EC50 is the concentration giving half of the maximal effect.

Tumor necrosis factor receptor superfamily member 10B (Homo sapiens), sequence (O14763 whole entry, looked up): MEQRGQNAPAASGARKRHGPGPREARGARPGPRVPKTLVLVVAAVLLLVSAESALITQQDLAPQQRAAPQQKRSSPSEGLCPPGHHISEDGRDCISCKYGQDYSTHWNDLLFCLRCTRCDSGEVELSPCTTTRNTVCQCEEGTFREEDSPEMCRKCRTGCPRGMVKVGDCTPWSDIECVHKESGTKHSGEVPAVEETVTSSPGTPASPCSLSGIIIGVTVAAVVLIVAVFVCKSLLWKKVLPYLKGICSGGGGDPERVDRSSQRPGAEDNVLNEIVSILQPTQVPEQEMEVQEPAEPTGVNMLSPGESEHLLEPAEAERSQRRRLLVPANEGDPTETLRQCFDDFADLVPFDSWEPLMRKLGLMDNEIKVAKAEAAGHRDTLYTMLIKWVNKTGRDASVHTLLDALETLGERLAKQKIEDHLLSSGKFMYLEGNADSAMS

In the case of `COc1cccc(N/C=C/C(=O)c2ccc(Cl)cc2)c1`, the EC50 entry in assay [1] (mean of runs) and in assay [3] was “inactive” throughout. Besides, the EC50 was 10.4 µM in assay [1] (setting [4]), 10.3 µM in assay [1] (setting [5]), above 12.5 µM in assay [2] (setting [4]) and 11.1 µM in assay [2] (setting [5]).

Turning to `O=C1CCCCC1Sc1nnc(-c2ccc3c(c2)OCO3)o1` (centres undefined), the EC50 result in assay [1] (mean of runs) is “inactive”. For the same molecule, the EC50 in assay [1] (setting [4]) is above 12.5 µM; in assay [1] (setting [5]), 11 µM; in assay [2] (setting [4]) it was above 12.5 µM; in assay [2] (setting [5]), above 12.5 µM; in assay [3], > 12.5 µM (inactive).

Regarding `COc1cccc(C(=O)Nc2ccc(C3CC3(Cl)Cl)cc2)c1` (centres undefined), the EC50 in assay [1] (mean of runs) is > 12.5 µM (inactive); in assay [1] (setting [4]) it was above 12.5 µM; in assay [1] (setting [5]), above 12.5 µM; in assay [2] (setting [4]), above 12.5 µM; in assay [2] (setting [5]), above 12.5 µM; in assay [3], > 12.5 µM (inactive).

Regarding `CCSc1ccc(-c2ccc(C)cc2)nn1`, the EC50 result in assay [1] (mean of runs) and in assay [3] was “inactive” each time. The EC50 was above 12.5 µM in assay [1] (setting [4]), 8.12 µM in assay [1] (setting [5]), above 12.5 µM in assay [2] (setting [4]) and 7.07 µM in assay [2] (setting [5]).

With `COC(=O)c1ccc(/C=C(\C#N)c2ccccn2)cc1`, the EC50 in assay [1] (mean of runs) was > 12.5 µM (inactive); in assay [1] (setting [4]), above 12.5 µM; in assay [1] (setting [5]) it was above 12.5 µM; in assay [2] (setting [4]) it was above 12.5 µM; in assay [2] (setting [5]), above 12.5 µM; in assay [3] it was > 12.5 µM (inactive).

As for `Cc1onc(-c2c(Cl)cccc2Cl)c1C(=O)ONC(=O)c1ccccc1`, the EC50 was > 12.5 µM (inactive) in assay [1] (mean of runs); above 12.5 µM in assay [1] (setting [4]); above 12.5 µM in assay [1] (setting [5]); above 12.5 µM in assay [2] (setting [4]); above 12.5 µM in assay [2] (setting [5]); > 12.5 µM (inactive) in assay [3].

For `COC(=O)[C@]12CCCCC=C1N(Cc1cccc3ccccc13)C(=O)[C@H](CC(=O)NCc1ccc(OC)c(OC)c1)C2`, the EC50 result in assay [1] (mean of runs) and in assay [3] was “inactive” throughout. The 50% effective concentration (EC50) in assay [1] (setting [4]) was above 12.5 µM; in assay [1] (setting [5]), 10.2 µM; in assay [2] (setting [4]), above 12.5 µM; in assay [2] (setting [5]), 10.7 µM.

Consider `CC(C)Cc1nc2oc3c(Cl)ncnc3c2c2c1CCCC2`, for which the EC50 in assay [1] (mean of runs) was > 12.5 µM (inactive); in assay [1] (setting [4]), above 12.5 µM; in assay [1] (setting [5]), above 12.5 µM; in assay [2] (setting [4]), above 12.5 µM; in assay [2] (setting [5]), above 12.5 µM; in assay [3] it was > 12.5 µM (inactive).

`O=C1Cc2c(-c3ccccc3)cc(-c3cccc(Cl)c3)nc2-c2ccccc2N1`: the EC50 is > 12.5 µM (inactive) in assay [1] (mean of runs); above 12.5 µM in assay [1] (setting [4]); above 12.5 µM in assay [1] (setting [5]); above 12.5 µM in assay [2] (setting [4]); above 12.5 µM in assay [2] (setting [5]); > 12.5 µM (inactive) in assay [3].

In the case of `COc1ccccc1C=NNC(=O)NN=Cc1ccccc1OC`, the EC50 result in assay [1] (mean of runs) and in assay [3] was “inactive” throughout. Also, the half-maximal effective concentration (EC50) in assay [1] (setting [4]) is 8.5 µM; in assay [1] (setting [5]), 10.3 µM; in assay [2] (setting [4]), above 12.5 µM; in assay [2] (setting [5]) it was 7.21 µM.

Consider `O=C1c2ccc(Cl)cc2S(=O)(=O)c2cccc(C(=O)N3CCC(Cc4ccccc4)CC3)c21`, for which the EC50 in assay [1] (mean of runs) was > 12.5 µM (inactive); in assay [1] (setting [4]) it was above 12.5 µM; in assay [1] (setting [5]), above 12.5 µM; in assay [2] (setting [4]), above 12.5 µM; in assay [2] (setting [5]), above 12.5 µM; in assay [3], > 12.5 µM (inactive).

Turning to `CC(=O)c1ccc(NC(=O)Nc2cccnc2)cc1`, the EC50 entry in assay [1] (mean of runs) and in assay [3] was “inactive” in each case. Moreover, the EC50 in assay [1] (setting [4]) was 11.4 µM; in assay [1] (setting [5]) it was 10.2 µM; in assay [2] (setting [4]), above 12.5 µM; in assay [2] (setting [5]) it was 9.72 µM.

As to `CC(C)C[C@H](NC(=O)c1nc[nH]c1C(=O)N[C@@H](CCCCNC(=O)OC(C)(C)C)C(=O)OC(C)(C)C)C(=O)OCc1ccccc1`, the EC50 is > 12.5 µM (inactive) in assay [1] (mean of runs); above 12.5 µM in assay [1] (setting [4]); above 12.5 µM in assay [1] (setting [5]); above 12.5 µM in assay [2] (setting [4]); above 12.5 µM in assay [2] (setting [5]); > 12.5 µM (inactive) in assay [3].

Turning to `COc1cc(NC(=O)c2cncc(-c3ccc(C#N)cc3)c2)cc(C(=O)Nc2cccc(C(F)(F)F)c2)c1`, the EC50 in assay [1] (mean of runs) was > 12.5 µM (inactive); in assay [1] (setting [4]), above 12.5 µM; in assay [1] (setting [5]), above 12.5 µM; in assay [2] (setting [4]), above 12.5 µM; in assay [2] (setting [5]), above 12.5 µM; in assay [3], > 12.5 µM (inactive).
